Experimental data: EPA's ToxRefDB 2

Experiments:
[1] = test system: rat; details: Fertility (Segment I), wistar, Oral, Gavage/Intubation, dose end: 7 GD
[2] = test system: rat; details: Prenatal developmental toxicity study; wistar; Injection; Intravenous; dose end: 18 GD; group: maternal; systemic / in life observation / body weight / body weight gain + systemic / in life observation / clinical signs / motor activity + …
[3] = test system: rat; details: Fertility (Segment I), wistar, Injection, Intravenous, dose end: 26 PND
[4] = test system: rabbit; details: Prenatal developmental toxicity study, himalayan, Injection, Intravenous, dose end: 18 GD
[5] = test system: rat; details: Fertility (Segment I); wistar; Injection; Intravenous; dose end: 7 GD; group: parental; systemic / in life observation / clinical signs / motor activity + systemic / in life observation / clinical signs / urine, discoloration + …
[6] = test system: rat; details: Carcinogenicity, wistar, Oral, Gavage/Intubation, dose end: 24 month, group: systemic
[7] = test system: dog; details: Subchronic oral toxicity in nonrodent; beagle; Injection; Intravenous; dose end: 3 month; group: systemic; systemic / hematology / erythrocyte (rbc) count differential / erythrocyte (rbc) + systemic / hematology / hematocrit (hct) / hematocrit (…
[8] = test system: dog; details: Chronic toxicity, beagle, Oral, Feed, dose end: 104 week, group: systemic
[9] = test system: dog; details: Subchronic oral toxicity in nonrodent, beagle, Feed, dose end: 13 week, group: systemic
[10] = test system: dog; details: Chronic toxicity, beagle, Oral, Capsule, dose end: 52 week, group: systemic
[11] = test system: rat; details: Subchronic oral toxicity in rodents, sprague dawley, Feed, dose end: 90 day, group: systemic, systemic / organ weight / adrenal gland / absolute + systemic / organ weight / adrenal gland / relative to body weight + systemic / organ …
[12] = test system: mouse; details: Combined chronic toxicity/carcinogenicity; cd1; Oral; Feed; dose end: 24 month; group: systemic; systemic / pathology microscopic / stomach / carcinoma + systemic / organ weight / kidney / nos + systemic / organ weight / ovary / relative…
[13] = test system: rat; details: Sub-acute dermal toxicity, fischer, Topical, dose end: 21 day, group: systemic, systemic / in life observation / clinical signs / desquamation + systemic / pathology microscopic / skin / hyperkeratosis + systemic / …
[14] = test system: rat; details: Subchronic oral toxicity in rodents, sprague dawley, Feed, dose end: 90 day, group: systemic, systemic / pathology microscopic / stomach / hyperkeratosis + systemic / pathology microscopic / stomach / hyperplasia
[15] = test system: mouse; details: Carcinogenicity, cd1, Oral, Feed, dose end: 24 month, group: systemic
[16] = test system: mouse; details: Carcinogenicity; cd1; Oral; Feed; dose end: 18 month; group: systemic; systemic / pathology microscopic / stomach / hyperplasia
[17] = test system: rat; details: Subchronic oral toxicity in rodents, sprague dawley, Feed, dose end: 13 week, group: systemic
[18] = test system: rat; details: Combined chronic toxicity/carcinogenicity; sprague dawley; Oral; Feed; dose end: 104 week; group: systemic; systemic / pathology microscopic / liver / hypertrophy + systemic / pathology microscopic / stomach / hyperkeratosis + systemic / pathology …
[19] = group: maternal, reproductive / reproductive performance / estrous cycle / corpora lutea + reproductive / reproductive performance / implantations / …
[20] = group: parental, systemic / in life observation / body weight / body weight + systemic / in life observation / clinical signs / ataxia + systemic / in life …
[21] = group: developmental, developmental / offspring survival late / viability index / viability index
[22] = group: maternal, reproductive / reproductive performance / pregnancy / pregnancy
[23] = group: offspring, systemic / in life observation / clinical signs / [other] + systemic / in life observation / clinical signs / abnormal gait + systemic / in …
[24] = group: offspring, systemic / in life observation / clinical signs / abnormal gait + systemic / in life observation / clinical signs / convulsions + systemic…
[25] = group: parental, systemic / in life observation / body weight / body weight gain + systemic / in life observation / clinical signs / [other] + systemic / in …
[26] = group: developmental, developmental / developmental malformation / general / crown-rump length + systemic / in life observation / body weight / fetal weight
[27] = group: maternal, systemic / in life observation / body weight / body weight gain + systemic / in life observation / clinical signs / [other] + systemic / in …
[28] = systemic / in life observation / clinical signs / salivation + systemic / organ weight / liver / relative to body weight + systemic / in …
[29] = systemic / pathology microscopic / stomach / neoplasm nos + systemic / hematology / hematocrit (hct) / hematocrit (hct) + systemic / …
[30] = systemic / clinical chemistry / bilirubin / total bilirubin
[31] = systemic / pathology microscopic / liver / inflammation + systemic / clinical chemistry / alanine aminotransferase (alt/sgpt) / alanine …
[32] = systemic / clinical chemistry / alanine aminotransferase (alt/sgpt) / alanine aminotransferase (alt/sgpt)
[33] = systemic / organ weight / liver / relative to body weight
[34] = systemic / pathology microscopic / kidney / inclusion body intracytoplasmic

## CC(C)c1ccc(C(=O)N=C(N)N)cc1S(C)(=O)=O.CS(=O)(=O)O [Cariporide mesylate]
[1]; [19]
  LEL: 400 mg/kg/day
  LOAEL: > 400 mg/kg/day
  NEL: 100 mg/kg/day
  NOAEL: ≥ 400 mg/kg/day
[1]; [20]
  LOAEL: > 400 mg/kg/day
  NEL: 25 mg/kg/day
  NOAEL: ≥ 400 mg/kg/day
[1]; group: parental, systemic / in life observation / clinical signs / salivation
  LEL: 100 mg/kg/day
[2]
  LEL: 125 mg/kg/day
  LOAEL: > 125 mg/kg/day
  NEL: 25 mg/kg/day
  NOAEL: ≥ 125 mg/kg/day
[3]; [21]
  LEL: 125 mg/kg/day
  LOAEL: > 125 mg/kg/day
  NEL: 25 mg/kg/day
  NOAEL: ≥ 125 mg/kg/day
[3]; [22]
  LEL: 125 mg/kg/day
  LOAEL: > 125 mg/kg/day
  NEL: 25 mg/kg/day
  NOAEL: ≥ 125 mg/kg/day
[3]; [23]
  LOAEL: > 125 mg/kg/day
  NOAEL: ≥ 125 mg/kg/day
[3]; [24]
  LEL: 5 mg/kg/day
  NEL: < 5 mg/kg/day
[3]; [25]
  LEL: 125 mg/kg/day
  LOAEL: > 125 mg/kg/day
  NEL: 25 mg/kg/day
  NOAEL: ≥ 125 mg/kg/day
[4]; [26]
  LEL: 40 mg/kg/day
  LOAEL: > 40 mg/kg/day
  NEL: 16 mg/kg/day
  NOAEL: ≥ 40 mg/kg/day
[4]; [27]
  LOAEL: > 40 mg/kg/day
  NEL: 6.3 mg/kg/day
  NOAEL: ≥ 40 mg/kg/day
[4]; group: maternal, systemic / in life observation / clinical signs / piloerection + systemic / in life observation / food consumption / food consumption
  LEL: 16 mg/kg/day
[5]
  LEL: 100 mg/kg/day
  LOAEL: > 100 mg/kg/day
  NEL: 25 mg/kg/day
  NOAEL: ≥ 100 mg/kg/day
[6]; [28]
  LEL: 12 mg/kg/day
  NEL: < 12 mg/kg/day
[6]; [29]
  LOAEL: > 400 mg/kg/day
  NOAEL: ≥ 400 mg/kg/day
[7]
  LEL: 1.25 mg/kg/day
  LOAEL: > 20 mg/kg/day
  NEL: < 1.25 mg/kg/day
  NOAEL: ≥ 20 mg/kg/day

## N#Cc1c(Cl)c(Cl)c(Cl)c(C#N)c1Cl [Chlorothalonil]
[8]; [30]
  LEL: 1.8 mg/kg/day
  NEL: < 1.8 mg/kg/day
[8]; systemic / pathology microscopic / kidney / vacuolization + systemic / clinical chemistry / bilirubin / total bilirubin
  LOAEL: 3.5 mg/kg/day
[8]; systemic / pathology microscopic / kidney / vacuolization + systemic / pathology microscopic / kidney / pigmentation
  NOAEL: 1.8 mg/kg/day
[9]; systemic / pathology microscopic / liver / infiltration cellular + systemic / pathology microscopic / liver / inflammation
  LOAEL: 56.5 mg/kg/day
[9]; systemic / pathology microscopic / liver / infiltration cellular + systemic / pathology microscopic / liver / inflammation + systemic / …
  NOAEL: 5.6 mg/kg/day
[9]; [31]
  LEL: 5.6 mg/kg/day
  NEL: < 5.6 mg/kg/day
[10]; [32]
  LEL: 15 mg/kg/day
  NEL: < 15 mg/kg/day
[10]; systemic / in life observation / body weight / body weight gain
  LOAEL: 500 mg/kg/day
[10]; systemic / in life observation / body weight / body weight gain + systemic / clinical chemistry / alanine aminotransferase (alt/sgpt) / …
  NOAEL: 150 mg/kg/day
[11]
  LEL: 250 mg/kg/day
  LOAEL: 750 mg/kg/day
  NEL: < 250 mg/kg/day
  NOAEL: 250 mg/kg/day
[12]
  LEL: 112 mg/kg/day
  LOAEL: 112 mg/kg/day
  NEL: < 112 mg/kg/day
  NOAEL: < 112 mg/kg/day
[13]
  LEL: 60 mg/kg/day
  LOAEL: 60 mg/kg/day
  NEL: < 60 mg/kg/day
  NOAEL: < 60 mg/kg/day
[14]
  LEL: 2.3 mg/kg/day
  LOAEL: 2.3 mg/kg/day
  NEL: < 2.3 mg/kg/day
  NOAEL: < 2.3 mg/kg/day
[15]; systemic / in life observation / body weight / body weight
  LOAEL: 225 mg/kg/day
[15]; systemic / in life observation / body weight / body weight + systemic / hematology / erythrocyte (rbc) count differential / erythrocyte (rbc…
  NOAEL: 112 mg/kg/day
[15]; [33]
  LEL: 56.2 mg/kg/day
  NEL: < 56.2 mg/kg/day
[16]
  LEL: 1.9 mg/kg/day
  LOAEL: 1.9 mg/kg/day
  NEL: < 1.9 mg/kg/day
  NOAEL: < 1.9 mg/kg/day
[17]; [34]
  LEL: 1.5 mg/kg/day
  LOAEL: 3 mg/kg/day
  NEL: < 1.5 mg/kg/day
[17]; systemic / pathology microscopic / kidney / inclusion body intracytoplasmic + systemic / pathology microscopic / kidney / hyperplasia
  NOAEL: 1.5 mg/kg/day
[18]
  LEL: 0.7 mg/kg/day
  LOAEL: 0.9 mg/kg/day
  NEL: < 0.7 mg/kg/day
  NOAEL: < 0.9 mg/kg/day
